Measured values taken from patent publication US12564631B2, “Phytosphingosine derivatives as adjuvants in immune stimulation” (Helmholtz-Zentrum für Infektionsforschung GmbH, priority 2020, dated 2026).

How the values were obtained:
[1] = system: Antigen-specific multifunctional CD4+ T cells; experiment: Antigen-specific multifunctional T cells (intracellular cytokine staining, flow cytometry) in spleen cells of immunized mice; type: in vivo, BALB/c mice; conditions: adjuvanted Ovalbumin, CD4+ and CD8+ T cell populations
Procedure: FIG. 8: Antigen-specific multifunctional CD4+ T cells. (A) Groups of 3 BALB/c mice were immunized intramuscularly with PBS (control) or with three doses (14 days apart) of Ovalbumin (30 μg), alone or adjuvanted with c-di-AMP or aßGalCerMPEG or IPB 2033-2044 (15 μg). At 14 days after the second immunization, spleen cells were harvested, restimulated with Ovalbumin, intracellularly stained for double positive Th cytokines (IFN-γ, IL-2, TNF-α, IL-4 and IL-17), and analyzed by flow cytometry. […] At 14 days after the second immunization, spleen cells were harvested, restimulated with Ovalbumin, intracellularly stained for triple positive Th cytokines (IFN-γ, IL-2, TNF-α, IL-4 and IL-17), and analyzed by flow cytometry.
In order to characterize more accurately the cellular immune response, the production of intracellular cytokines was measured in CD4+ and CD8+ T cells. […]
Therefore, mice were immunized to assess the in vivo performance of CDA in an active vaccination setting. To assess vaccination effectivity, the frequencies of cytokine producers among the CD4+ and CD8+ T cell populations were evaluated by intracellular cytokine staining and flow cytometry. […] Thus, the frequency of T cells producing single cytokines or combinations (positive events/million) was analyzed by flow cytometry.

[2] = Ebensen et al J. Immunol. 179 (2007) 2065; cited from earlier work

Row | Compound | frequency of triple, double and single cytokine producers among T cells [1] | solubility [2]
1 | Nc1ncnc2c1ncn2[C@@H]1O[C@@H]2COP(=O)(O)O[C@H]3[C@@H](O)[C@H](n4cnc5c(N)ncnc54)O[C@@H]3COP(=O)(O)O[C@H]2[C@H]1O [CDA, c-di-AMP] | increased the frequency of triple, double and single cytokine producers | –
2 | CCCCCCCCCCCCCCCCCCCCCCCCCC(=O)N[C@@H](CO[C@H]1O[C@H](CO)[C@H](O)[C@H](O)[C@H]1O)[C@H](O)[C@H](O)CCCCCCCCCCCCCC [KRN7000] | – | low solubility
